Measured values: patent US12371454B2, “Cyclic peptide compound having Kras inhibitory action” (priority 2019, dated 2025)
pIC50: −log10 of the molar value. Starred links: 1 amine or outer side, 2 acyl side, 3 side chain; linkers in the order of their positions; H or OH if unused. Positions of bridges follow the written chain, without caps; N, C: chain ends. Non-standard residues stand in square brackets, D forms with d. Residues, ends and D or L forms follow the SMILES beside them. *: point of attachment. hPhe(3-Cl-4-CF3) = N[C@@H](CCc1ccc(C(F)(F)F)c(Cl)c1)C(=O)O; hPhe(4-CF3) = N[C@@H](CCc1ccc(C(F)(F)F)cc1)C(=O)O; 3Oxa8azabicyclo(3.2.1)octane = C1CC2COCC1N2*; NMePhe(4-Me) = CN[C@@H](Cc1ccc(C)cc1)C(=O)O; NMedβ3hAla = C[C@H](CC(=O)[*:2])N(C)[*:1]; X43 = O=C(CN(c1ccc(Cl)cc1)[*:1])[*:2]; NMeAla(cPr) = CN[C@@H](CC1CC1)C(=O)O; NMeGly(cBu) = CN[C@H](C(=O)O)C1CCC1; NMeCha = CN[C@@H](CC1CCCCC1)C(=O)O; NMeChg = CN[C@H](C(=O)O)C1CCCCC1; NMeI = CC[C@H](C)[C@H](NC)C(=O)O; NMeT = CN[C@H](C(=O)O)[C@@H](C)O; NMeD = CN[C@@H](CC(=O)O)C(=O)O; NMeL = CN[C@@H](CC(C)C)C(=O)O; NEtAla = CCN[C@@H](C)C(=O)O; NMeV = CN[C@H](C(=O)O)C(C)C; d(β3hA) = C[C@@H](N)CC(=O)O; NMeA = CN[C@@H](C)C(=O)O; NMeAib = CNC(C)(C)C(=O)O; Piperidide = C1CCN(*)CC1; Ac5c = NC1(C(=O)O)CCCC1; Aze = O=C(O)[C@@H]1CCN1; Sar = CNCC(=O)O

What was measured:
[1] = target: T1, Kras and SOS1 (biotin-tagged human Kras loaded with GDP, His-tagged human SOS1) (Homo sapiens, UniProt P01116, G12D); assay: Protein-protein interaction inhibition between Kras and SOS1 (KrasGl2D-SOS PPI) using AlphaScreen; format: binding; conditions: AlphaScreen; biotin-tagged human Kras loaded with GDP, His-tagged human SOS1; read-out: KRAS G12D-SOS PPI IC50
T1 construct: made in house; host or cells: E. coli (stated for Kras only)
T1 sequence (P01116 1-188 isoform P01116-2 G12D): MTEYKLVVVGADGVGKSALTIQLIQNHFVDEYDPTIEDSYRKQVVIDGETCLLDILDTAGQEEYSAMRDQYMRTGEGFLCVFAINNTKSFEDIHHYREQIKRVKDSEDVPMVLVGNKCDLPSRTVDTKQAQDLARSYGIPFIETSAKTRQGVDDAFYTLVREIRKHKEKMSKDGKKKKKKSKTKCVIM
Outline: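 Energy transfer from nickel-chelate donor beads bound to His-SOS1 to streptavidin acceptor beads bound to biotin-Kras, expressed in E. coli and loaded with GDP after purification, was monitored. Donors were excited at 680 nm; singlet oxygen reaching acceptors gave emission read at 520-620 nm.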

[2] = tested on: Human pancreatic cancer cell line AsPC-1; assay: Measurement of AsPC-1 cell growth inhibition (AsPC-1 CGI); format: cell-based; conditions: 96 h
Outline: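 AsPC-1 cells in 15% FBS RPMI-1640 were exposed to test compound for 96 hours at 37° C, with CellTiter-Glo as endpoint.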

Structure (SMILES)	pIC50 [1]	pIC50 [2]
CC[C@H](C)[C@@H]1NC(=O)[C@H](CC(C)C)N(C)C(=O)C[C@@H](C(=O)N2CCCCC2)N(C)C(=O)[C@H](C2CCCCC2)N(C)C(=O)C2(CCCC2)NC(=O)[C@@H]2CCCN2C(=O)[C@H](CCc2ccc(C(F)(F)F)c(Cl)c2)NC(=O)CN(C)C(=O)[C@H](CC2CC2)N(C)C(=O)CN(C)C(=O)CN(C)C1=O [Compound 234] ([NMeL]I[Sar][Sar][NMeAla(cPr)][Sar][hPhe(3-Cl-4-CF3)]P[Ac5c][NMeChg][NMeD]-Piperidide; lactam N-11)	8.68	< 6.30
CC[C@H](C)[C@@H]1NC(=O)[C@H](C)N(CC)C(=O)C[C@@H](C(=O)N2CCCCC2)N(C)C(=O)[C@H](C(C)C)N(C)C(=O)C2(CCCC2)NC(=O)[C@@H]2CCCN2C(=O)[C@H](CCc2ccc(C(F)(F)F)c(Cl)c2)NC(=O)CN(C)C(=O)[C@H](CC2CCCCC2)N(C)C(=O)CN(C)C(=O)CN(C)C1=O [Compound 1051] ([NEtAla]I[Sar][Sar][NMeCha][Sar][hPhe(3-Cl-4-CF3)]P[Ac5c][NMeV][NMeD]-Piperidide; lactam N-11)	8.54	6.30 to 7.00
CC[C@H](C)[C@@H]1NC(=O)[C@H](CC(C)C)N(C)C(=O)C[C@@H](C)N(C)C(=O)[C@H](CC2CC2)N(C)C(=O)C2(CCCC2)NC(=O)[C@@H]2CCCN2C(=O)[C@H](CCc2ccc(C(F)(F)F)c(Cl)c2)NC(=O)CN(C)C(=O)[C@H](CC2CCCCC2)N(C)C(=O)CN(C)C(=O)CN(C)C1=O [Compound 1019] (cyclo([Ac5c][NMeAla(cPr)][NMedβ3hAla][NMeL]I[Sar][Sar][NMeCha][Sar][hPhe(3-Cl-4-CF3)]P))	7.85	6.30 to 7.00
CC[C@H](C)[C@@H]1NC(=O)[C@H](CC(C)C)N(C)C(=O)C[C@@H](C(=O)N2CCCCC2)N(C)C(=O)[C@H](C(C)C)N(C)C(=O)C2(CCCC2)NC(=O)[C@@H]2CCCN2C(=O)[C@H](CCc2ccc(C(F)(F)F)cc2)NC(=O)CN(C)C(=O)[C@H](CC2CCCCC2)N(C)C(=O)CN(C)C(=O)CN(C)C1=O [Compound 108] ([NMeL]I[Sar][Sar][NMeCha][Sar][hPhe(4-CF3)]P[Ac5c][NMeV][NMeD]-Piperidide; lactam N-11)	8.30	6.30 to 7.00
CC[C@H](C)[C@@H]1NC(=O)[C@H](CC(C)C)N(C)C(=O)C[C@@H](C)NC(=O)[C@H](C(C)C)N(C)C(=O)C2(CCCC2)NC(=O)[C@@H]2CCCN2C(=O)[C@H](CCc2ccc(C(F)(F)F)c(Cl)c2)NC(=O)CN(C)C(=O)[C@H](Cc2ccc(C)cc2)N(C)C(=O)CN(C)C(=O)CN(C)C1=O [Compound 1632] (cyclo([Ac5c][NMeV][d(β3hA)][NMeL]I[Sar][Sar][NMePhe(4-Me)][Sar][hPhe(3-Cl-4-CF3)]P))	8.54	6.30 to 7.00
CC[C@H](C)[C@@H]1NC(=O)[C@H]([C@@H](C)O)N(C)C(=O)C[C@@H](C(=O)N2CCCCC2)N(C)C(=O)[C@H](C2CCCCC2)N(C)C(=O)C2(CCCC2)NC(=O)[C@@H]2CCCN2C(=O)[C@H](CCc2ccc(C(F)(F)F)c(Cl)c2)NC(=O)CN(C)C(=O)[C@H](CC2CCCCC2)N(C)C(=O)CN(C)C(=O)CN(C)C1=O [Compound 756] ([NMeT]I[Sar][Sar][NMeCha][Sar][hPhe(3-Cl-4-CF3)]P[Ac5c][NMeChg][NMeD]-Piperidide; lactam N-11)	9.24	6.30 to 7.00
CC[C@H](C)[C@@H]1NC(=O)[C@H](C)N(C)C(=O)C[C@@H](C(=O)N2CCCCC2)N(C)C(=O)[C@H](C2CCC2)N(C)C(=O)C(C)(C)N(C)C(=O)CN(c2ccc(Cl)cc2)C(=O)[C@H](CCc2ccc(C(F)(F)F)c(Cl)c2)NC(=O)CN(C)C(=O)[C@H](C2CCC2)N(C)C(=O)[C@@H]2CCN2C(=O)[C@H](C)N(C)C1=O [Compound 2147] ([NMeA]I[NMeA][Aze][NMeGly(cBu)][Sar][hPhe(3-Cl-4-CF3)][X43][NMeAib][NMeGly(cBu)][NMeD]-Piperidide; lactam N-11)	8.10	< 6.30
CC[C@H](C)[C@@H]1NC(=O)[C@H](CC(C)C)N(C)C(=O)C[C@@H](C(=O)N2C3CCC2COC3)N(C)C(=O)[C@H]([C@@H](C)CC)N(C)C(=O)C2(CCCC2)NC(=O)[C@@H]2CCCN2C(=O)[C@H](CCc2ccc(C(F)(F)F)c(Cl)c2)NC(=O)CN(C)C(=O)[C@H](CC2CCCCC2)N(C)C(=O)CN(C)C(=O)CN(C)C1=O [Compound 1938] ([NMeL]I[Sar][Sar][NMeCha][Sar][hPhe(3-Cl-4-CF3)]P[Ac5c][NMeI][NMeD]-{3Oxa8azabicyclo(3.2.1)octane}; lactam N-11)	9.12	7.30 to 7.70
